Calls of active or inactive are those of the source.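 How the source made its calls: active means tumour findings in long-term animal cancer tests in more than one sex, species or organ; inactive means no tumour finding and more than one negative test.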
assay: DSSTox (CPDBAS) Carcinogenic Potency Database Summary MultiCellCall Results; details: animal carcinogenicity bioassays, multi-cell call summary
From the text: The Carcinogenic Potency Database (CPDB) is a unique and widely used international resource of the results of over 6500 chronic, long-term animal cancer tests on over 1500 chemical substances. The CPDB provides easy access to the bioassay literature, with qualitative and quantitative analyses of both positive and negative experiments that have been published over the past 50 years in the general literature and by the National Cancer Institute/National Toxicology Program. The CPDB standardizes the diverse literature of cancer bioassays that vary widely in protocol, histopathological examination and nomenclature, and in the published author's choices of what information to provide in their papers. Results are reported in the CPDB for tests in rats, mice, hamsters, dogs, and nonhuman primates, and are based on the most positive result among all experiments for each sex-species. The DSSTox CPDBAS (all species) file incorporates data from the CPDB Summary Tables for the full list of over 1500 chemical substances tested in at least one species. A summary MultiCellCall, based on experimental bioassay results of one or more species, is provided in the DSSTox CPDBAS file (see Source URL) for more than 1150 chemical substances.
Associated TD50 values and tumor site details for the relevant species/sex experiment supporting the overall CPDBAS MultiSiteCall are provided in the full DSSTox CPDBAS file (see Comment) and the corresponding CPDBAS Species Bioassay in PubChem. ActivityScore is computed as follows: multispecies=50, multisex=30, multisite=20, with combination scores computed as sums of these values, e.g. multispecies+multisite=70.

Row | Compound | outcome
1 | CN(C)CCOC(C)(c1ccccc1)c1ccccn1 (stereo not drawn) | active; multisite active; multisex active; multispecies active
2 | Nc1c(Br)cc(Br)c2c1C(=O)c1ccccc1C2=O | active; multisite active; multisex active; multispecies active
3 | CCC1C(=O)OCC1Cc1cncn1C (stereo not drawn) | inactive; multisex inactive
4 | O=NN(CC(F)(F)F)CC(F)(F)F | inactive; multisex inactive
5 | CCN(Cc1cccc(S(=O)(=O)O)c1)c1ccc(C(=C2C=CC(=[N+](CC)Cc3cccc(S(=O)(=O)O)c3)C=C2)c2ccc(O)cc2S(=O)(=O)[O-])cc1 | inactive; multisex inactive; multispecies inactive
6 | CC(=O)CN(N=O)C(N)=O | active; multisex active
7 | Cn1cnc([N+](=O)[O-])c1Sc1ncnc2nc[nH]c12 | active; multisite active
8 | COCCl | active; multispecies active
9 | C=CF | active; multisite active; multisex active; multispecies active
10 | CCN(CC)C(=S)[S-].CCN(CC)C(=S)[S-].[Cd+2] | inactive; multisex inactive
11 | O=S(=O)(O)NC1CCCCC1 | active; multisite active; multisex active
12 | C[C@@H]1CCC[C@H](C)N1CCCC(O)(c1ccccc1)c1ccccn1 (stereo partly drawn) | inactive; multisex inactive; multispecies inactive
13 | [O-][Br+2]([O-])O | active; multisite active; multisex active; multispecies active
14 | O=NN1CCCN(N=O)CC1 | active; multisite active
15 | CCOc1ccc(NC(C)=O)cc1 | active; multisite active; multisex active; multispecies active
16 | Cc1c(N(C)CS(=O)(=O)O)c(=O)n(-c2ccccc2)n1C | active; multisex active
17 | Cc1cc(C)c(N=Nc2c(O)c(S(=O)(=O)O)cc3cc(S(=O)(=O)O)ccc23)cc1C | active; multisex active
18 | c1ccc2c(c1)Oc1ccccc1O2 | inactive; multisex inactive; multispecies inactive
19 | O=S1OCC2C(CO1)C1(Cl)C(Cl)=C(Cl)C2(Cl)C1(Cl)Cl (stereo not drawn) | inactive; multisex inactive; multispecies inactive
20 | O=P(O)(OCC(Br)CBr)OCC(Br)CBr (stereo not drawn) | active; multisite active; multisex active
21 | O=C(Oc1ccccc1)Oc1ccccc1 | inactive; multisex inactive
22 | O=C/C=C/c1ccccc1 | inactive; multisex inactive; multispecies inactive

Row | Compound | outcome
23 | CN(C)C(=O)Nc1ccc(Cl)c(Cl)c1 | inactive; multisex inactive
24 | O=NN(CCO)CCO | active; multisite active; multisex active
25 | Nc1nc(N)nc(-c2ccccc2)n1 | inactive; multisex inactive; multispecies inactive
26 | CC(=O)NNc1ccccc1 | active; multisex active
27 | COc1cccc2c1C(=O)c1c(O)c3c(c(O)c1C2=O)C[C@@](O)(C(=O)CO)C[C@@H]3O[C@H]1C[C@H](N)[C@H](O)[C@H](C)O1 | inactive; multispecies inactive
28 | Cc1ccc(/C(=C\CN2CCCC2)c2ccccn2)cc1 | inactive; multisex inactive; multispecies inactive
29 | O=S(=O)(Oc1ccc(Cl)cc1Cl)c1ccccc1 | inactive; multisex inactive
30 | COc1cc(-c2ccc(N=C=O)c(OC)c2)ccc1N=C=O | active; multisite active; multisex active
31 | CCCCOC(=O)c1ccc(O)cc1 | inactive; multisex inactive
32 | Cc1cc(O)c2c(c1)C(=O)c1cc(O)cc(O)c1C2=O | inactive; multisex inactive; multispecies inactive
33 | CC(O)CO (stereo not drawn) | inactive; multisex inactive
34 | C[C@@H]1CC2(O[C@@H]2C)C(=O)O[C@@H]2CCN(C)C/C=C(/COC(=O)[C@]1(C)O)C2=O (stereo partly drawn) | active; multisite active; multisex active
35 | C[C@]12C=CC(=O)C=C1CC[C@@H]1[C@@H]2C(=O)C[C@@]2(C)[C@H]1CC[C@]2(O)C(=O)CO | inactive; multisex inactive
36 | O=[N+]([O-])c1cc([N+](=O)[O-])c(Cl)c(Cl)c1Cl | inactive; multisex inactive
37 | Nc1ccc(/C=C/c2ccc(N)cc2S(=O)(=O)O)c(S(=O)(=O)O)c1 | inactive; multisex inactive; multispecies inactive
38 | Oc1ccc(Cl)cc1Cl | inactive; multisex inactive; multispecies inactive
39 | CS(=O)(=O)c1ccc([C@@H](O)[C@@H](CO)NC(=O)C(Cl)Cl)cc1 | inactive; multisex inactive
40 | Cc1cc(N)ccc1N | inactive; multisex inactive; multispecies inactive
41 | CC(O)CN(C)c1ccc(NN)nn1 (stereo not drawn) | inactive; multisex inactive
42 | CN[C@@H](C)[C@H](O)c1ccccc1 | inactive; multisex inactive; multispecies inactive
43 | CC(C)OC(=O)Nc1cccc(Cl)c1 | inactive; multisex inactive; multispecies inactive
44 | OCCN(CCO)CCO | active; multisex active

Row | Compound | outcome
45 | O=C1C2CC=CCC2C(=O)N1SC(Cl)(Cl)Cl (stereo not drawn) | active; multisite active; multisex active; multispecies active
46 | O=[N+]([O-])c1cc([As](=O)(O)O)ccc1O | inactive; multisex inactive; multispecies inactive
47 | Nc1c(Cl)cc([N+](=O)[O-])cc1Cl | inactive; multisex inactive
48 | CN(C)c1ccc(N=NS(=O)(=O)O)cc1 | inactive; multisex inactive; multispecies inactive
49 | CCn1c2ccccc2c2cc(N)ccc21 | active; multisite active; multisex active; multispecies active
50 | CC(C)OC(=O)COc1ccc(Cl)cc1Cl | inactive; multisex inactive
51 | c1ccc2sc(SSc3nc4ccccc4s3)nc2c1 | inactive; multisex inactive
52 | OC[C@H]1O[C@H](O[C@]2(CCl)O[C@H](CCl)[C@@H](O)[C@@H]2O)[C@H](O)[C@@H](O)[C@H]1Cl | inactive; multisex inactive
53 | Cc1cc(Cc2ccc(N)c(C)c2)ccc1N | active; multisite active; multisex active
54 | O=[N+]([O-])OCC(CO[N+](=O)[O-])O[N+](=O)[O-] | active; multisite active; multisex active
55 | Cc1ccc2c(c1)C(N1CCN(C)CC1)=Nc1ccccc1S2 | inactive; multisex inactive
56 | CC(CN1c2ccccc2Sc2ccccc21)N(C)C (stereo not drawn) | inactive; multisex inactive; multispecies inactive
57 | ClC(Cl)(Cl)Cl | active; multisite active; multisex active; multispecies active
58 | CN(C)NC(=O)CCC(=O)O | active; multisite active; multisex active; multispecies active
59 | Cc1ncc[nH]1 | active; multisite active; multisex active; multispecies active
60 | Cc1ccc(OP(=O)(Oc2ccc(C)cc2)Oc2ccc(C)cc2)cc1 | inactive; multisex inactive; multispecies inactive
61 | O=NN1C[C@H](O)C[C@H]1C(=O)O | inactive; multisex inactive
62 | NC(=O)c1ccccc1C(N)=O | inactive; multisex inactive; multispecies inactive
63 | O=NN(CCO)C(=O)NCCCl | active; multisite active; multisex active
64 | O=P(OCC(Br)CBr)(OCC(Br)CBr)OCC(Br)CBr (stereo not drawn) | active; multisite active; multisex active; multispecies active
65 | C=CCCl | inactive; multisex inactive
66 | C1CCOC1 | active; multisite active; multisex active; multispecies active

Row | Compound | outcome
67 | NC(=O)CCCCC(N)=O | inactive; multisex inactive; multispecies inactive
68 | Cc1c([N+](=O)[O-])c(C)c([N+](=O)[O-])c(C(C)(C)C)c1[N+](=O)[O-] | active; multisite active; multisex active
69 | CNC[C@H](O)c1cccc(O)c1 | inactive; multisex inactive; multispecies inactive
70 | c1ccc(NNc2ccccc2)cc1 | active; multisite active; multisex active; multispecies active
71 | C=CC(O)c1ccc2c(c1)OCO2 (stereo not drawn) | active; multisite active; multisex active; multispecies active
72 | C[C@]12C/C(=C/O)C(=O)C[C@@H]1CC[C@@H]1[C@@H]2CC[C@@]2(C)[C@H]1CC[C@]2(C)O | active; multisite active
73 | Cc1nnc2n1-c1sc(CCc3ccc(CC(C)C)cc3)cc1C(c1ccccc1Cl)=NC2C (stereo not drawn) | inactive; multisex inactive
74 | Cc1ccc(N)cc1 | active; multisex active
75 | C=CCOc1ccccc1OCC(O)CNC(C)C (stereo not drawn) | inactive; multisex inactive; multispecies inactive
76 | ClC#CCl | active; multisite active; multisex active; multispecies active
77 | Cc1cc(O)cc(C)c1N(C)C | inactive; multisex inactive
78 | O=[N+]([O-])c1ccc2ccc3cccc4ccc1c2c34 | active; multisite active
79 | CN(C)CCN(Cc1cccs1)c1ccccn1 | active; multisex active
80 | O=NN(CC(=O)O)CC(=O)O | inactive; multisex inactive
81 | Nc1nc(-c2ccc([N+](=O)[O-])o2)cs1 | active; multisite active; multispecies active
82 | C=CCl | active; multisite active; multisex active; multispecies active
83 | S=C1NCCN1 | active; multisite active; multisex active; multispecies active
84 | CCCc1ccc2c(c1)OCO2 | active; multisite active; multisex active; multispecies active
85 | ClC(Cl)(Cl)c1ccccc1 | active; multisite active
86 | Nc1ncn([C@@H]2O[C@H](CO)[C@@H](O)[C@H]2O)c(=O)n1 | active; multisite active; multisex active; multispecies active
87 | CC(=O)Nc1ccc(C(=O)CCl)cc1 | inactive; multisex inactive; multispecies inactive
88 | Nc1ccc(-c2ccc(N)c(N)c2)cc1N | active; multisite active; multispecies active
